Key:
Format in all cases: functional, cell-based
[1] = system: SK-MEL-2; test: Cytotoxicity against human SK-MEL-2 cells by SRB assay
[2] = system: HCT-15; test: Cytotoxicity against human HCT15 cells by SRB assay
[3] = system: SK-OV-3; test: Cytotoxicity against human SKOV3 cells by SRB assay
[4] = system: A549; test: Cytotoxicity against human A549 cells by SRB assay

Q: What does the source list for CN1CCc2cc3c(cc2[C@@H]1Cc1ccc2c(c1C(=O)O)OCO2)OCO3?
A: IC50 [1]: > 30 µM; IC50 [2]: 27.8 µM; IC50 [3]: > 30 µM; IC50 [4]: > 30 µM

Q: Which results are given for COc1ccc(C[C@@H]2c3cc(O)c(OC)cc3CCN2C)cc1O [(R)-RETICULINE]?
A: IC50 [1]: > 30 µM; IC50 [2]: 26.8 µM; IC50 [3]: > 30 µM; IC50 [4]: > 30 µM

Q: Which results are given for COc1ccc(C[C@H]2c3cc(O)c(OC)cc3CCN2C)cc1O [(S)-RETICULINE]?
A: IC50 [1]: > 30 µM; IC50 [2]: 29.4 µM; IC50 [3]: > 30 µM; IC50 [4]: > 30 µM

Q: For COc1ccc2cc3[n+](cc2c1OC)CCc1cc2c(cc1-3)OCO2 [BERBERINE CHLORIDE], which IC50 [1] is on record?
A: The IC50 was 13.8 µM.

Q: What about the IC50 [2] of the same compound?
A: Its IC50 is 16.6 µM.

Q: What about the IC50 [3] of the same compound?
A: Its IC50 is 16.4 µM.

Q: And the IC50 [4]?
A: Its IC50 is 6.27 µM.

Q: Which IC50 [1] does the source give for COc1cc2c(cc1O)C1Cc3ccc4c(c3CN1CC2)OCO4 (stereo not given) [CHEILANTHIFOLINE] here?
A: The IC50 was 22.2 µM.

Q: And the IC50 [2]?
A: The IC50 was 29.8 µM.

Q: What about the IC50 [3] of the same compound?
A: Its IC50 is 27.4 µM.

Q: What about the IC50 [4] of the same compound?
A: The IC50 was 20.6 µM.

Q: How did the IC50 [1] turn out when c1c2c(cc3c1OCO3)-c1cc3ccc4c(c3c[n+]1CC2)OCO4 [COPTISINE CHLORIDE] was run?
A: Its IC50 is greater than 30 µM.

Q: What about the IC50 [2] of the same compound?
A: The IC50 was 29.1 µM.

Q: And the IC50 [3]?
A: The IC50 was greater than 30 µM.

Q: And the IC50 [4]?
A: The IC50 was 24 µM.

Q: Which results are given for COc1cc2c(cc1OC)C1Cc3ccc(O)c(OC)c3CN1CC2 (stereo not given) [CORYDALMINE]?
A: IC50 [1]: 27.2 µM; IC50 [2]: 26.4 µM; IC50 [3]: 28.5 µM; IC50 [4]: > 30 µM

Q: With O=C(O)c1c(C[C@@H]2NCCc3cc4c(cc32)OCO4)ccc2c1OCO2 [CORYTERNATINE A] as the compound, how does the IC50 [1] read?
A: Its IC50 is greater than 30 µM.

Q: What about the IC50 [2] of the same compound?
A: The IC50 was 23.3 µM.

Q: And the IC50 [3]?
A: Its IC50 is greater than 30 µM.

Q: And the IC50 [4]?
A: Its IC50 is greater than 30 µM.

Q: For COc1ccc(C[C@@H]2NCCc3cc4c(cc32)OCO4)c(C(=O)O)c1OC [CORYTERNATINE B], which IC50 [1] is on record?
A: Its IC50 is greater than 30 µM.

Q: What about the IC50 [2] of the same compound?
A: Its IC50 is 24.6 µM.

Q: And the IC50 [3]?
A: The IC50 was greater than 30 µM.

Q: What about the IC50 [4] of the same compound?
A: The IC50 was greater than 30 µM.

Q: What does the source list for COc1ccc(C[C@H]2NCCc3cc4c(cc32)OCO4)c(C(=O)O)c1OC [CORYTERNATINE C]?
A: IC50 [1]: > 30 µM; IC50 [2]: 27.6 µM; IC50 [3]: > 30 µM; IC50 [4]: > 30 µM

Q: Which results are given for COc1cc2c(cc1OC)C1Cc3ccc(O)c(O)c3CN1CC2 (stereo not given) [DEMETHYLCORYDALMINE]?
A: IC50 [1]: 7.87 µM; IC50 [2]: 2.86 µM; IC50 [3]: 5.14 µM; IC50 [4]: 8.34 µM

Q: What does the source list for COc1cccc2c1C(=O)c1c(O)c3c(c(O)c1C2=O)C[C@@](O)(C(=O)CO)C[C@@H]3O[C@H]1C[C@H](N)[C@H](O)[C@H](C)O1 [DOXORUBICIN]?
A: IC50 [1]: 0.012 µM; IC50 [2]: 0.038 µM; IC50 [3]: 0.003 µM

Q: Which results are given for COc1ccc2c(c1OC)CN1CCc3cc4c(cc3C1C2)OCO4 (stereo not given) [TETRAHYDROBERBERINE]?
A: IC50 [1]: 27.9 µM; IC50 [2]: > 30 µM; IC50 [3]: > 30 µM; IC50 [4]: > 30 µM

Q: COc1c(O)ccc2cc3[n+](cc12)CCc1cc2c(cc1-3)OCO2 [THALIFENDINE] was tested. Which IC50 [1] did it give?
A: The IC50 was 25.7 µM.

Q: And the IC50 [2]?
A: The IC50 was greater than 30 µM.

Q: And the IC50 [3]?
A: The IC50 was greater than 30 µM.

Q: What about the IC50 [4] of the same compound?
A: Its IC50 is 28.3 µM.

From ChEMBL document CHEMBL1208733, “Benzylisoquinoline alkaloids from the tubers of Corydalis ternata and their cytotoxicity” (Bioorg Med Chem Lett, 2010)
